# Results as given in patent publication US11332771B2, “Serum-free cell culture medium” (Regeneron Pharmaceuticals, Inc., priority 2013, dated 2022).
# Where a name gives a salt, the structure may show the parent alone. Read-outs that look alike come from different tables or passages of the source.
# What was measured:
# CHO-K1 derived cell line = settings: for Average seven-day antibody titer: 100 mg/L ornithine.HCl, with or without 115 mg/L putrescine.2HCl
# Method: We examined the expression and secretion of recombinant IgG by a CHO-K1 derived cell line. In this experiment, the average antibody titer was determined at day seven in culture under various media formats.
# [1] = system: recombinant antibody producing cell line derived from CHO K1 cells; assay: Cell doubling time in logarithmic growth phase, seed train cultures passaged over 14 days; assay type: cell-based, Chinese hamster; settings: ornithine.HCl 100 mg/L, with or without putrescine.2HCl 115 mg/L
# Method: The doubling time of a recombinant antibody producing cell line derived from CHO K1 cells in logarithmic growth phase was determined under various cell culture media conditions. Seed train cultures were passaged at 36.5° C. in 250 mL shaker flasks over a period of 14 days in each of three separate media: Medium 1, Medium 2, and Medium 2 containing soy hydrolysate (Medium 2+ Soy). Aliquots of 1 mL were removed from each condition on Day 0 and at the time of seed train passage (every 2 or 3 days), and viable cell counts were conducted using trypan blue exclusion on a CDV™ instrument (Nova Biomedical).
# [2] = system: recombinant antibody producing cell line derived from CHO K1; assay: Antibody titer in Medium 3 with various amounts of ornithine.HCl, 50 mL TubeSpin Bioreactors; assay type: cell-based, Chinese hamster; settings: Medium 3, three days, all three levels of ornithine supplementation, N=3
# Excerpt: The results are depicted in Table 6.
structure (smiles),measurement,setting,value
"NCCC[C@H](N)C(=O)O [Ornithine, L-ornithine.HCl]",Average seven-day antibody titer,CHO-K1 derived cell line; Medium 1,0.94 g/L
same,Average seven-day antibody titer,CHO-K1 derived cell line; Medium 2 + Soy,0.98 g/L
same,Average seven-day antibody titer,CHO-K1 derived cell line; Medium 2,0.65 g/L
same,Increase in protein titer,"CHO-K1 derived cell line; day seven, in all cases (Medium 1, Medium 2, Medium 2+ Soy), versus low putrescine 0.4 mg/L",at least about two-fold
same,Cell doubling time,[1]; Medium 1,23 h
same,Cell doubling time,[1]; Medium 2 + Soy,20.5 h
same,Cell doubling time,[1]; Medium 2,21 h
same,Improvement of antibody titer on the average,[2],more than 50%
